Values quoted from earlier work, collected in patent US20200129471A1, “USE OF CANNABIS TO TREAT FIBROMYALGIA, METHODS AND COMPOSITIONS THEREOF” (ONE WORLD CANNABIS LTD, priority 2015, published 2020).

Details: administered to humans for 30 days

Question: Which tolerability does the source give for `C=C(C)[C@@H]1CCC(C)=C[C@H]1c1c(O)cc(CCCCC)cc1O` [CBD, cannabidiol] here?
Answer: tolerated
